Data as given in paper PMC9981719, “A novel designed membrane-active peptide for the control of foodborne Salmonella enterica serovar Typhimurium” (Scientific Reports, 2023).
≈ marks a conversion by molar mass, not a printed value. Like-named read-outs stand apart in the source and are kept apart here. Where no end group is shown, it is not given here.

Key:
[1] = system: all Gram-positive strains; test: Geometric mean of MICs and therapeutic index, Gram-positive strains; assay type: cell-based; conditions: 4 Gram-positive strains
Source text: (§1) All tests were done in triplicate.

[2] = system: all Gram-negative strains; test: Geometric mean of MICs and therapeutic index, Gram-negative strains; assay type: cell-based; conditions: 4 Gram-negative strains
Source text: as §1

[3] = system: Acinetobactero baumanii MT strain; assay type: cell-based; conditions: for MIC: 24 h
Source text: as §1

[4] = system: Listeria monocytogenes 10403s; assay type: cell-based; conditions: for MIC: 24 h
Source text: as §1

[5] = system: Pseudomonas aeruginosa ATCC 27853; assay type: cell-based
Source text: as §1

[6] = system: Staphylococcus epidermidis ATCC 12228; assay type: cell-based; conditions: for MBC: ATCC 12228, 18 h
Source text: as §1

[7] = system: Shigella sonnei ATCC11060; assay type: cell-based; conditions: triplicate; for MIC: broth microdilution in MHB, 37 °C, 24 h; for MBC: colony count on TSA from non-turbid MIC wells
Source text: as §1

[8] = system: Bacillus cereus ATCC 11778; assay type: cell-based
Source text: as §1

[9] = system: Salmonella Typhimurium ATCC 13311; assay type: cell-based, Salmonella enterica serovar Typhimurium
Source text: as §1

[10] = system: L929 mouse fibroblast cells; test: In vitro cytotoxicity, MTT assay; assay type: cell-based; conditions: 0.98–250 µg/ml, 24 h
Procedure: The cytotoxicity of A11 was evaluated by the 3-(4,5 dimethylthiazol-2-yl)-2,5-diphenyltetrazolium bromide (MTT) assay. L929 mouse fibroblast cells were cultured in Dulbecco's Modified Eagle Medium (DMEM) supplemented with 1% (v/v) of 100 IU/ml penicillin/streptomycin and 10% (v/v) fetal bovine serum (FBS). The cells were maintained in an air atmosphere containing the 5% CO2 under high humidity at 37 °C. L929 cell lines were seeded into a sterile 96-well plate (1 × 10^4 cells/well) then incubated overnight and treated with different concentrations of A11 (0.98–250 µg/ml) for 24 h. Media were removed, and cultured cells were incubated with 100 µl of MTT solution (4 mg/ml) for 4 h at 37 °C. After removal of MTT solution, the formed formazan was dissolved in 100 µl DMSO. Absorbance was measured by microplate reader at 570 nm; untreated cells served as negative control and melittin-treated cells as a positive control. Cell viability was determined following this equation: Cell viability%=ODTreated/ODControl×100

[11] = system: panel of human pathogenic bacterial strains; conditions: summary over all tested strains of Table 1
Procedure: Four Gram-negative bacteria including Salmonella enterica serovar Typhimurium (S. Typhimurium) ATCC 13311 and 16 drug-resistant S. enterica isolates (S. Typhimurium and monophasic variant 4,5,12:i:-), and four Gram-positive bacteria (Staphylococcus aureus ATCC 25923, Staphylococcus epidermidis ATCC 12228, Bacillus cereus ATCC 11778, and Listeria monocytogenes 10403s) were used as test microorganisms. […] All bacterial strains were cultured in a proper medium at 37 °C for 18 h (Table 1).
The minimum inhibitory concentration (MIC) of each peptide was evaluated by broth microdilution assay according to a modification described by the National Committee for Clinical Laboratory Standards (NCCLS)[22]. Mid-logarithmic phase bacterial cells were adjusted to an OD620 of 0.05 in Mueller–Hinton broth (MHB), a universal medium for antibacterial susceptibility testing[23]. Then, 50 µl of bacterial solution was incubated with 50 µl of two-fold serially diluted peptide (0.98–250 µg/ml in PBS) at 37 °C for 24 h with continuous shaking. […] The minimal bactericidal concentration (MBC) of each peptide was determined using a colony count assay. Fifty microliter aliquots of the mixture from each non-turbid well (no growth) from the MIC experiment was spread on Tryptic soy agar (TSA) and cultured overnight at 37 °C. […]

[12] = system: Staphylococcus aureus ATCC 25923; assay type: cell-based; conditions: for MBC: ATCC 25923, 18 h; for MIC: ATCC 25923, 24 h
Source text: as §1

[13] = broth microdilution in MHB, 37 °C, triplicate
[14] = colony count on TSA from non-turbid MIC wells, triplicate
[15] = broth microdilution in MHB, 37 °C, 24 h, triplicate

Compound | MIC [7] [mg/L] | MBC [7] [mg/L] | MBC ([3]; 18 h) | MIC [3] | MBC ([4]; 10403s, 18 h) | MIC ([4]; 10403s) | MBC ([5]; ATCC 27853, 18 h) | MIC ([5]; ATCC 27853, 24 h) | MBC [6] | MIC ([6]; ATCC 12228, 24 h) | MBC [12] | MIC [12] | MBC ([8]; ATCC 11778, 18 h) | MIC ([8]; ATCC 11778, 24 h) | MBC ([9]; ATCC 13311, 18 h) | MIC ([9]; ATCC 13311, 24 h) | other results
CC[C@H](C)[C@H](NC(=O)CN)C(=O)NCC(=O)N[C@@H](C)C(=O)N[C@H](C(=O)N[C@@H](CC(C)C)C(=O)N[C@@H](CCCCN)C(=O)N[C@H](C(=O)N[C@@H](CC(C)C)C(=O)N[C@H](C(=O)N[C@H](C(=O)NCC(=O)N[C@@H](CC(C)C)C(=O)N1CCC[C@H]1C(=O)N[C@@H](C)C(=O)N[C@@H](CC(C)C)C(=O)N[C@H](C(=O)N[C@@H](CO)C(=O)N[C@@H](Cc1c[nH]c2ccccc12)C(=O)N[C@H](C(=O)N[C@@H](CCCCN)C(=O)N[C@@H](CCCNC(=N)N)C(=O)N[C@@H](CCCCN)C(=O)N[C@@H](CCCNC(=N)N)C(=O)N[C@@H](CCC(N)=O)C(=O)N[C@@H](CCC(N)=O)C(N)=O)[C@@H](C)CC)[C@@H](C)CC)[C@@H](C)O)[C@@H](C)O)C(C)C)C(C)C [Melittin, reference compound] | 3.91 (≈ 1.37 µM) | 7.81 (≈ 2.74 µM) | – | – | – | – | – | – | – | – | – | – | – | – | – | – | GM (Gr. + strains), geometric mean of MIC values from all Gram-positive strains [1]: 3.91 mg/L; GM (Gr.- strains), geometric mean of MIC values from all Gram-negative strains [2]: 6.8 mg/L; MIC [3, 13]: 7.81 (7.81) µg/ml; MBC [3, 14]: 7.81 (7.81) µg/ml; MIC [4, 13]: 3.91 (3.91) µg/ml; MBC [4, 14]: 3.91 (3.91) µg/ml; MIC [5, 15]: 15.63 (15.63) µg/ml; MBC [5, 14]: 15.63 (15.63) µg/ml; MIC [6, 15]: 3.91 (3.91) µg/ml; MIC [8, 15]: 3.91 µg/mL (≈ 1.37 µM); MBC [8, 14]: 7.81 µg/mL (≈ 2.74 µM); MIC ([9]; broth microdilution in MHB, 37 °C, 24 h, visible inspection, triplicate): 3.91 (3.91) µg/ml; MBC ([9]; colony count on TSA from non-turbid MIC wells, overnight 37 °C, triplicate): 3.91 (3.91) µg/ml; cytotoxicity toward L929 cells (cell viability, MTT) [10]: strongly cytotoxic
GNPKVAHCASQIGRSTAWGAVSGA-NH2 [A0, acidocin J1132β, reference compound] | – | – | > 250 (> 250) µg/ml | > 250 (> 250) µg/ml | > 250 (> 250) µg/ml | > 250 (> 250) µg/ml | > 250 (> 250) µg/ml | > 250 (> 250) µg/ml | > 250 (> 250) µg/ml | > 250 (> 250) µg/ml | > 250 (> 250) µg/ml | > 250 (> 250) µg/ml | > 250 (> 250) µg/ml | > 250 (> 250) µg/ml | > 250 (> 250) µg/ml | > 250 (> 250) µg/ml | MIC over the tested bacteria [11]: > 250 mg/L
GVKKVAHKVVKIGRKVAW-NH2 [A6] | 62.5 | 125 | 31.25 (31.25) µg/ml | 31.25 (31.25) µg/ml | 250 (> 250) µg/ml | 250 (> 250) µg/ml | 250 µg/mL | 125 µg/mL | > 250 (> 250) µg/ml | > 250 (> 250) µg/ml | > 250 (> 250) µg/ml | > 250 (> 250) µg/ml | > 250 (> 250) µg/ml | > 250 (> 250) µg/ml | 62.5 (62.5) µg/ml | 62.5 (62.5) µg/ml | –
GVKKVAHKVVKIGRKVAWGAVSGV-NH2 [A4] | – | – | 31.25 µg/mL | 15.63 µg/mL | 250 (> 250) µg/ml | 250 (> 250) µg/ml | 250 (250) µg/ml | 250 (250) µg/ml | 250 (250) µg/ml | 250 (250) µg/ml | > 250 (> 250) µg/ml | > 250 (> 250) µg/ml | > 250 (> 250) µg/ml | > 250 (> 250) µg/ml | 31.25 (31.25) µg/ml | 31.25 (31.25) µg/ml | –
GVKKVARKVVKIGRKVAR-NH2 [A9] | – | – | 125 µg/mL | – | 250 (> 250) µg/ml | 250 (> 250) µg/ml | 250 (250) µg/ml | 250 (250) µg/ml | > 250 µg/mL | 62.5 µg/mL | > 250 (> 250) µg/ml | > 250 (> 250) µg/ml | > 250 (> 250) µg/ml | > 250 (> 250) µg/ml | 62.5 (62.5) µg/ml | 62.5 (62.5) µg/ml | –
